The subject of assay [1] is Saccharomyces cerevisiae wild type strain BY4743. In words: AF1 combined gene expression and metabolite mapping to reactions and pathways (KEGG). Type of assay: cell-based. The text has this: The pathway score indicates how meaningful the mapping is, or how likely it is to be correctly indicative of the pathway involved in the perturbation under examination. The method provides a pathway score based on perturbation levels of genes and/or compounds and the information content of each gene and/or compound in the pathway, i.e., a pathway score indicates the extent to which other pathways are mapped to a gene/compound. For example, imagine that two genes are perturbed in a particular experiment. One gene maps to only one pathway, giving a high degree of probability that the perturbed pathway is the one identified in the mapping. The second gene maps to three pathways. In the later example, there is only one-third the probability that the pathway identified in the mapping is the one perturbed. The present invention provides a method for calculating the pathway scores, so that more weight is given to a score of a gene or compound that maps to only one pathway than to a score of a gene or compound that maps to multiple pathways. […] Where n=the total number of genes in the pathway; ipath—count=the number of pathways containing a gene; and j=the number of genes in the pathway that are perturbed. Another factor to be considered when weighting a pathway score is the degree of perturbation. Degree of perturbation can be calculated, for example, based on a number of standard deviations from a norm, and included in an equation such as the one shown above, so that not only the number of pathways is taken into account, but also accounts for the amount of gene transcript or compound present as compared to a control. The data were then combined to determine the number of reactions showing an enzyme and at least one compound perturbed, and to determine the number of pathways having at least one enzyme and one perturbed compound perturbed. The results of the analysis are represented in Tables 16 and 17, and were difficult to interpret, illustrating that the ability to draw conclusions from compound mapping to pathways is limited when absent additional data.

Assay [2] shares this test system. The experiment in a line: AF1 gene expression analysis of yeast cells treated with antifungal drugs. Type of assay: cell-based. Particulars: for # Transcripts perturbed: 2x MIC, two hours; for # Pathways Affected by at Least One Gene: p < 0.05. The procedure:
Saccharomyces cerevisiae wild type strain BY4743 was purchased from American Type Culture Center (ATCC, Manassas, Va.). The yeast strain was grown in YPD or SD media. H. […] The cultures started from fresh single colonies were grown in 1.0 ml YPD overnight at 30° C. […] The OD600 was adjusted to 1.0 with YPD media, then 2.0 ml of each was inoculated into three 250 ml flasks, each containing 50 ml of SD media. […] The cells were kept growing for another two hours, then collected by centrifugation at 4000 rpm for 5 minutes at 4° C. Pellets were washed once with ice-cold water, then were lyophilized overnight at 4° C. […] Tubes were vortexed for 30 seconds, then incubated for 10 minutes at room temperature (RT). […] Tubes were incubated for 10 minutes at RT. Samples were centrifuged for 20 minutes as before. Pellets were washed with 400 μl 70% ethanol and centrifuged for 10 minutes as before. The pellet was then dissolved in 100 μl nuclease-free water. RNA quality was determined using the Bioanalyzer 2100 and the RNA 6000 assay (Agilent Technologies, Palo Alto, Calif.) according to manufacturer's instructions. RNA concentrations were determined spectrophotometrically by measuring the absorption at, 260 nm in an Ultrospec 2000 (Pharmacia Biotech, Piscataway, N.J.). […] Labeled cRNAs were evaluated using the RNA 6000 assay on the Agilent Bioanalyzer 2100. Labeled cRNA concentrations were determined spectrophotometrically by measuring the absorption at 260 nm in an Ultrospec 2000 (Pharmacia Biotech, Piscataway, N.J.). […] Each pair of samples to be hybridized were independently labeled and hybridized utilizing a fluor reversal for a total of two hybridizations per sample pair. The microarrays were scanned simultaneously in the Cy3 and Cy5 channels with Agilent's 48-slide, Dual Laser DNA Microarray Scanner (Agilent Technologies, Palo Alto, Calif.) at 10 μm resolution using default settings. Image Analysis Software (Version A.4.0.45, Agilent Technologies, Palo Alto, Calif.) was used for image analysis. Each feature was determined from an array's associated pattern file and a detection algorithm. Intensity values for each feature were determined after subtracting background derived from an average of negative control features. Features with unusual pixel intensity statistics (e.g., high non-uniformity, saturation in either channel, and the like) were excluded from downstream analyses. Data was loaded into the Rosetta RESOLVER database (Rosetta Inpharmatics Inc., Kirkland, Wash.) for storage and analysis. Data was evaluated after combining results from fluor reversal replicate hybridizations. The annotation of yeast ORFs was obtained from Proteome BIOKNOWLEDGE Library (Incyte Genomics, Palo Alto, Calif.). In AF1, two different technologies were utilized: gene expression analysis (for examination of mRNA expression) and metabolite analysis. […] As noted previously, existing metabolic databases may be helpful in practicing the methods and systems of the present invention, but many databases include limitations that make their use in data analysis and pathway mapping less than straightforward. […] This caveat to KEGG makes it difficult to pinpoint the correct pathway when attempting to link a gene to a specific pathway.

On to `C[C@@H]1[C@H](O)[C@@H](C)/C=C/C=C/C=C/C=C/C=C/C=C/C=C/[C@H](O[C@@H]2O[C@H](C)[C@@H](O)[C@H](N)[C@@H]2O)C[C@@H]2O[C@](O)(C[C@@H](O)C[C@@H](O)[C@H](O)CC[C@@H](O)C[C@@H](O)CC(=O)O[C@H]1C)C[C@H](O)[C@H]2C(=O)O` [Amphoteracin B], for which, in assay [1], the “# Reactions Having an Enzyme and at Least One Compound Perturbed” value came out at 54; the “Number Of Pathways Having at Least One Enzyme and One Compound Perturbed (# Reactions)” value came to 37. In addition, the “# Transcripts perturbed” value in assay [2] (P < 0.05) is 4363. Moreover, in assay [2] (P < 0.1), the “# Transcripts perturbed” value was 4652. Moreover, in assay [2], the “# Pathways Affected by at Least One Gene” value was 97.
For `OC(Cn1cncn1)(Cn1cncn1)c1ccc(F)cc1F` [Fluconazole] the same measures were 2, 15, 1411, 1719 and 79.
For `CC[C@@H]([C@H](C)O)n1ncn(-c2ccc(N3CCN(c4ccc(OC[C@@H]5CO[C@@](Cn6cncn6)(c6ccc(F)cc6F)C5)cc4)CC3)cc2)c1=O` [Posaconazole], in assay [1], the “# Reactions Having an Enzyme and at Least One Compound Perturbed” value is recorded as 0. The “Number Of Pathways Having at Least One Enzyme and One Compound Perturbed (# Reactions)” value in assay [1] was 3. For the same compound, the “# Transcripts perturbed” value is reported as 690 in assay [2] (P < 0.05) and 925 in assay [2] (P < 0.1). Further, in assay [2], the “# Pathways Affected by at Least One Gene” value is given as 69.

For the origin of these results see patent US20030229451A1, “Methods and systems for analyzing complex biological systems” (priority 2001, published 2003).
